# Data: patent US10954271B2, “Anti-microbial peptides” (priority 2014, dated 2021)
# Positions of bridges follow the written chain, without caps; N, C: chain ends. Non-standard residues stand in square brackets, D forms with d. Residues, ends and D or L forms follow the SMILES beside them. d2Nal = N[C@H](Cc1ccc2ccccc2c1)C(=O)O; Nle = CCCC[C@H](N)C(=O)O
# Legend:
# M. smegmatis = M. smegmatis adhesion / anti-biofilm assay, counting crystal violet-positive cells; assay type: cell-based
# Text: A second series of cationic-aromatic AMPs was designed, and linked (via the N-terminus) to linear anti-biofilm peptides. This created a hybrid anti-biofilm/AMP (AB01), with a Gram-positive specific C-terminal di-peptide (dVal-dPro). A model Gram positive organism that rapidly forms biofilms (M. smegmatis; Ojha, A. and G. F. Hatfull, The role of iron in Mycobacterium smegmatis biofilm formation: the exochelin siderophore is essential in limiting iron conditions for biofilm formation but not for planktonic growth. Mol Microbiol, 2007. 66(2): p. 468-83) was used to assess the inhibition of adhesion/anti-biofilm activity of AB01 & two control AMPs, using a 2 day old biofilm.
# The effect of three AMPs on M. smegmatis adhesion was measured on day 0 (data not shown) & after 2 days of biofilm growth, counting crystal violet-positive cells (FIG. 5; see O'Toole, G. A., Microtiter dish biofilm formation assay. J Vis Exp, 2011(47)). Control bacterial adhesion was designated as 100%, and the effect of an added AMP on the cell count was quantified as a percent of the control. The AMPs included Model 01, an AMP of the (RW)n series, (RW)4: [17]; AM11, a cyclized analog of the (RW)n series c(RW)3; and AB01, a hybrid of a cyclized AMP and a linear anti-biofilm peptide.
# E. coli [1] = system: E. coli
# B. subtilis = test: Anti-microbial activity, concentration needed to inhibit 50% of bacterial division (IC50); assay type: cell-based
# Method: (§1) Further, a set of the anti-microbial peptides described herein were tested for their anti-microbial activity on both Gram-positive and Gram-negative bacteria. […] Unexpectedly, it was further observed that the C-terminal residues (denoted by bold font) selectively target gram-negative or gram-positive bacteria, as indicated.
# (§2) Anti-microbial activity is reported as the concentration needed to inhibit 50% of bacterial division (ICso, a standard used in the AMP field). […] In contrast, Opt 3-5 have a Phe for Pro substitution in the C-terminal di-peptide, which produces relatively specificity for Gram-negative organisms (e.g. E. coli). Melittin is a cationic-hydrophobic AMP that served as anti-microbial positive control. Agglutination, an attribute assisting in the clearance of bacterial cells during infection, was assessed via microscopy, and was present with all five AMPs.
# E. coli [2] = test: as above; assay type: cell-based; details: for relative specificity Gram-positive versus Gram-negative: from IC50 against E. coli and B. subtilis, Table 1
# Method: as §1, §2
# [3] = system: Gram-positive and Gram-negative bacteria; test: Membrane disruption and cell agglutination assessed via microscopy; assay type: cell-based
# Method: as §1, §2
# (§3) (1) Microscopy. Bacteria can be treated with dilutions of AMPs were directly analyzed via microscopy for membrane disruption phenotypes, including cell agglutination, cell lysis, and cell elongation/septum disruption. Cells can be also monitored for septum inhibition and elongation through use of the membrane dye FM5-95 and DAPI. Additionally the cells can be imaged and stained with the Life Technologies LIVE/DEAD® BacLight™ Bacterial Viability Kit For killing kinetics of the anti-microbial peptides.
# (2) Agglutination and Protein Aggregation. Using the antimicrobial 96 well assay described above, imaging of the 96 well plate and can provide a method for the determination of the MAC (minimum agglutination concentration) for the bacteria, as described. Torrent et al., PLoS Pathogens 8(11): e1003005 (2012).
# [4] = system: Gram-positive and Gram-negative bacteria; test: Non-membrane activity (mode of action: septum inhibition, protein aggregation, cell division); assay type: cell-based
# Method: as §1
# Core sequences were cyclized to enhance druggability and anti-microbial activity. Multiple cationic residues increased binding to anionic membrane and intracellular structures. […] The C-terminal di-peptides in these AMPs were used for their ability to enhance oral activity in peptides. It was discovered that they also directed relative anti-microbial activity towards either Gram-positive or negative organisms (Table 1 and FIG. 5). These AMPs appear to have multiple mechanisms of action (Table 1), potentially mediated by specific binding to the bacterial membrane, and their intracellular accumulation (data not shown). In essence, these AMPs are a form of combination therapy.
# as §3
# [5] = orally administered, canines (beagles)
# Text: We further conducted a preliminary study in a large animal canine model to assess cardiovascular and hematologic safety and clearance of the peptide TCAM207 (SEQ NO: 209) from plasma over a multiple day dosing. Male and female purpose bred beagles were randomized to treatment and instrumented with Holter 9 lead electrocardiograph (ECG) jackets and non-invasive oscillographic paw blood pressure monitoring (emkaPAC 4G telemetry). ECG and BP signals were sampled at 500 Hz using GLP compliant software (IOX, EMKA). ECG signals were saved continuously and blood pressure determined hourly. Blood samples were taken before and after 14 days of SC or oral drug administration for complete chemistry panel and CBC analysis. Samples were taken 1, 2, 4, 8, 12, and 24 hours after drug administration on days 1 and 5 for assay of plasma IIP to assess PK profile. After a 1-2 week washout, dogs were randomized to the other arm of the study.
# [6] = normal beagles (n=4), 5 days of 5× therapeutic dose
compound,measurement,setting,value
"CC[C@H](C)[C@H](NC(=O)[C@H](CCCNC(=N)N)NC(=O)[C@H](Cc1ccccc1)NC(C)=O)C(=O)N[C@@H](CCCNC(=N)N)C(=O)N[C@H](C(=O)N[C@@H](CCCNC(=N)N)C(=O)N[C@H](C(=O)N[C@H]1CC(=O)NCCCC[C@@H](C(=O)N[C@@H](C(=O)N2CCC[C@@H]2C(N)=O)C(C)C)NC(=O)[C@H](CCCNC(=N)N)NC(=O)[C@H](Cc2c[nH]c3ccccc23)NC(=O)[C@H](Cc2ccccc2)NC(=O)[C@@H](Cc2ccc3ccccc3c2)NC(=O)[C@H](CCCNC(=N)N)NC(=O)[C@H](CCCNC(=N)N)NC1=O)C(C)C)C(C)C [AB01, Ac-FRIRVRV-c[Asp-RR-dNal(21-FWR-Lys]-dVal-dPro-CONH2] (Ac-FRIRVRVDRR[d2Nal]FWRK[dV][dP]-NH2; lactam 8-15)",concentration that prevented adhesion in a 2 day old biofilm,M. smegmatis; 2 day old biofilm,3 to 5 µM
same,potency in inhibition of adhesion/anti-biofilm activity relative to Model 01,M. smegmatis; 2 day old biofilm,~100 fold
same,concentration that prevented adhesion on day 0,M. smegmatis,1 µM
same,MIC for E. coli,E. coli [1],25 µM
"CC[C@H](C)[C@H](NC(=O)CN)C(=O)NCC(=O)N[C@@H](C)C(=O)N[C@H](C(=O)N[C@@H](CC(C)C)C(=O)N[C@@H](CCCCN)C(=O)N[C@H](C(=O)N[C@@H](CC(C)C)C(=O)N[C@H](C(=O)N[C@H](C(=O)NCC(=O)N[C@@H](CC(C)C)C(=O)N1CCC[C@H]1C(=O)N[C@@H](C)C(=O)N[C@@H](CC(C)C)C(=O)N[C@H](C(=O)N[C@@H](CO)C(=O)N[C@@H](Cc1c[nH]c2ccccc12)C(=O)N[C@H](C(=O)N[C@@H](CCCCN)C(=O)N[C@@H](CCCNC(=N)N)C(=O)N[C@@H](CCCCN)C(=O)N[C@@H](CCCNC(=N)N)C(=O)N[C@@H](CCC(N)=O)C(=O)N[C@@H](CCC(N)=O)C(N)=O)[C@@H](C)CC)[C@@H](C)CC)[C@@H](C)O)[C@@H](C)O)C(C)C)C(C)C [Melittin, reference compound]",IC50 B. subtilis,B. subtilis,20.8 µg/mL
same,"IC50, E. coli; μg/mL",E. coli [2]; concentration needed to inhibit 50% of bacterial division,0.7 µg/mL
same,Membrane Disruption?,[3],Yes
same,Non-Membrane Activity?,[4],None observed
CCCC[C@H](NC(C)=O)C(=O)N[C@H]1CC(=O)NCCCC[C@@H](C(=O)N[C@@H](C(=O)N2CCC[C@@H]2C(N)=O)C(C)C)NC(=O)[C@@H](Cc2ccc3ccccc3c2)NC(=O)[C@H](CCCNC(=N)N)NC(=O)[C@@H](Cc2ccc3ccccc3c2)NC(=O)[C@@H]2CCCN2C(=O)[C@H](CCCNC(=N)N)NC1=O [Opt 1] (Ac-[Nle]DRP[d2Nal]R[d2Nal]K[dV][dP]-NH2; lactam 2-8),relative specificity Gram-positive versus Gram-negative,E. coli [2],relatively specific for B. subtilis
same,Membrane Disruption?,[3],"Yes, and Agglutination"
CCCC[C@H](NC(C)=O)C(=O)N[C@H]1CC(=O)NCCCC[C@@H](C(=O)N[C@@H](C(=O)N2CCC[C@@H]2C(N)=O)C(C)C)NC(=O)[C@H](CCCNC(=N)N)NC(=O)[C@@H](Cc2ccc3ccccc3c2)NC(=O)[C@H](CCCNC(=N)N)NC(=O)[C@@H](Cc2ccc3ccccc3c2)NC(=O)[C@@H]2CCCN2C(=O)[C@H](CCCNC(=N)N)NC1=O [Opt 2] (Ac-[Nle]DRP[d2Nal]R[d2Nal]RK[dV][dP]-NH2; lactam 2-9),relative specificity Gram-positive versus Gram-negative,E. coli [2],relatively specific for B. subtilis
same,Membrane Disruption?,[3],"Yes, and Agglutination"
CCCC[C@H](NC(C)=O)C(=O)N[C@H]1CC(=O)NCCCC[C@@H](C(=O)N[C@H](Cc2ccccc2)C(=O)N[C@@H](C(N)=O)C(C)C)NC(=O)[C@H](Cc2c[nH]c3ccccc23)NC(=O)[C@H](CCCNC(=N)N)NC(=O)[C@@H](Cc2ccc3ccccc3c2)NC(=O)[C@@H]2CCCN2C(=O)[C@H](CCCNC(=N)N)NC1=O [Opt 3] (Ac-[Nle]DRP[d2Nal]RWK[dF][dV]-NH2; lactam 2-8),Membrane Disruption?,[3],"Yes, and Agglutination"
same,Non-Membrane Activity?,[4],None observed
CCCC[C@H](NC(C)=O)C(=O)N[C@H]1CC(=O)NCCCC[C@@H](C(=O)N[C@@H](Cc2ccccc2)C(=O)N[C@H](C(N)=O)C(C)C)NC(=O)[C@H](Cc2c[nH]c3ccccc23)NC(=O)[C@H](CCCNC(=N)N)NC(=O)[C@@H](Cc2ccc3ccccc3c2)NC(=O)[C@@H]2CCCN2C(=O)[C@H](CCCNC(=N)N)NC1=O [Opt 4] (Ac-[Nle]DRP[d2Nal]RWKFV-NH2; lactam 2-8),Membrane Disruption?,[3],"Yes, and Agglutination"
CCCC[C@H](NC(C)=O)C(=O)N[C@H]1CC(=O)NCCCC[C@@H](C(=O)N[C@H](C(=O)N[C@@H](Cc2ccccc2)C(N)=O)C(C)C)NC(=O)[C@H](Cc2c[nH]c3ccccc23)NC(=O)[C@H](CCCNC(=N)N)NC(=O)[C@@H](Cc2ccc3ccccc3c2)NC(=O)[C@@H]2CCCN2C(=O)[C@H](CCCNC(=N)N)NC1=O [Opt 5] (Ac-[Nle]DRP[d2Nal]RWKVF-NH2; lactam 2-8),Membrane Disruption?,[3],"Yes, and Agglutination"
same,Non-Membrane Activity?,[4],Altered cell
"(RW)4 [Model-01, reference compound]",concentration that prevented adhesion in a 2 day old biofilm,M. smegmatis; 2 day old biofilm,≥ 100 µM
same,concentration that prevented adhesion on day 0,M. smegmatis,10 µM
Ac-[Nle]DP[d2Nal]RWK[dV][dP]-NH2 (lactam 2-7) [TCAM207],time the peptide was stable and remained in the plasma,[5],up to 24 hrs
same,RBC casts,[6],no RBC casts were noted
same,"change in red blood cell (RBC) count, hemoglobin (Hg), and hematocrit (Hct)",[6],slight (statistically insignificant) decreases in all parameters
